Test results reported in US20120164128A1, “MEANS AND METHODS FOR COUNTERACTING POLYQ EXPANSION DISORDERS” (Academisch Medisch Centrum, priority 2009, published 2012).

B1: DnaJB8: member of the Hsp40/DnaJ heat shock protein family, co-expressed chaperone (protein, UniProt Q8NHS0 1-232, looked up)
DnaJ homolog subfamily B …: MANYYEVLGVQASASPEDIKKAYRKLALRWHPDKNPDNKEEAEKKFKLVSEAYEVLSDSKKRSLYDRAGCDSWRAGGGASTPYHSPFDTGYTFRNPEDIFREFFGGLDPFSFEFWDSPFNSDRGGRGHGLRGAFSAGFGEFPAFMEAFSSFNMLGCSGGSHTTFSSTSFGGSSSGSSGFKSVMSSTEMINGHKVTTKRIVENGQERVEVEEDGQLKSVTVNGKEQLKWMDSK

Legend:
polyQ peptides = test: Peptidase inhibitor study in cells co-expressing DnaJB6, Western blot against polyQ; assay type: cell-based; conditions: inhibitor in combination with DnaJB6, treated for eight hours, FIG. 8B
Protocol: (§1) Cytosolic extracts were generated by lysing cells with 0.1% Triton X-100 for 30 minutes at 4° C., and supernatant was used after spinning down the lysate. 20 μg of cytosolic protein lysates were separated by 18% SDS-PAGE and transferred to Protan nitrocellulose membranes. Membranes were blocked in 5% dry milk in TBS containing 0.3% tween and probed with anti-Polyglutamine 1C2 (MAB1574, Millipore). Preparation of SDS-soluble and SDS-insoluble protein fractions was described before (example 1 and Carra et al., 2008). For peptidase inhibitory studies, transfected cells were treated for eight hours with different peptidase inhibitors before lysates were generated for Western blotting.
To elucidate which clearance pathway led to the degradation of the polyQ peptides, several inhibitors were used in combination with DnaJB6 and DnaJB8. Cysteine proteases were inhibited by E-64, aspartyl proteases by pepstatin A, metalloproteases by bestatin, serine proteases by phenylmethylsulfonyl (PMSF), proteasomes were inhibited by MG-132 and macroautophagy was inhibited by 3-methyladenine (3-MA).

[1] = test system: polyQ peptides derived from GFP-Ub-Q65; test: Western blot against polyQ (1C2) of cells expressing GFP-Ub-Q65 with altered TPPII activity; assay type: cell-based; conditions: for polyQ peptide levels: cells expressing GFP-Ub-Q65, TPPII co-expressed or inhibited, FIG. 10 panel A
Protocol: as §1
Large polyQ-peptides are preferably cleaved by endo-peptidases, as a few cleavages will result in smaller polyQ peptides below the disease-threshold that can be targeted by recycling amino-peptidases. To measure endo-peptidase activity against glutamines, we designed a probe containing 8 glutamines, flanked by a fluorophore (left) and a quencher (right). When the glutamines are cleaved, the quencher is released from the fluorophore, leading to fluorescence. Since the termini themselves are protected against exo-peptidases, only endo-peptidases can handle the peptide by cleaving the Q stretch. […] Since this experiment was performed with a small Q peptide, we next examined whether TPPII was able to prevent accumulation and aggregation of polyQ peptides derived from GFP-Ub-Q65. […] Some additional high molecular weight bands were present, representing oligomeric complexes. […] When testing two TPPII variants that have an altered conformation and lowered endo- peptidase activity, the levels of polyQ peptides (and resulting aggregates) increased again, showing that TPPII complex formation affects polyQ peptide degradation. […] This was achieved by either co-expressing TPPII or adding the specific inhibitor of TPPII, butabindide. […] Similarly, polyQ fragments generated by the proteasome upon degradation of polyQ expanded proteins were targeted by TPPII. […]

polyQ peptides (Q65) = test: SDS-soluble and SDS-insoluble fractions stained against polyQ; assay type: cell-based; conditions: co-expression with Q65 peptides; for amount of polyQ peptides in the SDS-insoluble fraction: FIG. 8A
Protocol: Cytosolic extracts were generated by lysing cells with 0.1% Triton X-100 for 30 minutes at 4° C., and supernatant was used after spinning down the lysate. 20 μg of cytosolic protein lysates were separated by 18% SDS-PAGE and transferred to Protan nitrocellulose membranes. Membranes were blocked in 5% dry milk in TBS containing 0.3% tween and probed with 1:1000 anti-GFP (Molecular Probes), 1:100 anti-Ub (SIGMA) or the anti-Polyglutamine 1C2 (MAB1574, Millipore). Polyclonal Horseradish Peroxidase (HRP) conjugated secondary antibodies, anti-rabbit (Sigma) or anti-mouse (DAKO) were used 1:10.000 to detect the primary antibodies via Lumi-lightPLUS westernblotting substrate (Roche). Preparation of SDS-soluble and SDS-insoluble protein fractions was described before (Carra et al., 2008). Briefly, cells were trypsinized, homogenized, and heated for 10 min at 99° C. in sample buffer (70 mM Tris pH 6.8, 1.5% SDS, 20% glycerol) supplemented with 50 mM DTT 72 hours after transfection. Cell lysates were centrifuged for at least 30 minutes at 14.000 rpm at room temperature. Supernatants were used as SDS-soluble fraction to which 0.05% bromophenol blue was added. Pellets represented SDS-insoluble fractions and were dissolved in 100% formic acid, incubated 30 minutes at 37° C., lyophilized overnight in a speed vac (Eppendorf), and resuspended in a ¼ of the volume of sample buffer containing 0.05% bromophenol blue. Samples were separated on either 18% SDS-PAGE (anti-polyQ), or 12.5% SDS-PAGE (anti-GFP) and further treated as Western blots.
as §1, with “For peptidase inhibitory studies, transfected cells were treated for eight hours with different peptidase inhibitors before lysates were generated for Western blotting.” left out

HEK293T cells = test: Scoring of cells with fluorescent aggregates by fluorescence microscopy; assay type: cell-based, Human
Protocol: Human embryonic kidney cells (HEK293T) and Mel JuSo fibroblast cells where cultured in IMDM (GIBCO) supplemented with 10% FCS and penicillin/streptomycin/L-glutamine. The cells where transiently transfected with Fugene6 (Roche) and analyzed at indicated time-points after transfection. Mouse STHdh^+/+(Q7) cells (kindly provided by Marcy MacDonald) (Trettel et al, 2000) and N2A neuroblastoma cells were cultured in DMEM supplemented with 10% FCS and penicillin/streptomycin/L-glutamine. Neuronal cells where transiently transfected with Lipofectamine 2000 (Invitrogen). Mouse STHdh^+/+(Q7) cells were incubated at 32° C. For toxicity measurements, N2A cells were analyzed by FACS LSRII for GFP fluorescence 24 or 48 hours after transfection, and the percentage of GFP-positive cells was quantified.
HEK293T cells were transfected with indicated constructs and the percentages of aggregates were scored using an inverted fluorescence microscope (Leica DMR). For imaging, Mel Juso cells were transiently transfected with indicated constructs and images where obtained using a confocal microscope (Leica SP2) using a 63× objective. Note that some pictures show ‘over-exposed’ fluorescent aggregates in order to visualize non-sequestered, cytoplasmic staining. […]

| Molecule | polyQ peptide levels despite DnaJB6 (polyQ peptides) | polyQ peptide levels [1] | amount of polyQ peptides in the SDS-insoluble fraction (polyQ peptides (Q65)) | aggregation on co-expression with GFP-Ub-Q65 (HEK293T cells) | further results |
| --- | --- | --- | --- | --- | --- |
| CC(C)C[C@H](NC(=O)[C@H]1O[C@@H]1C(=O)O)C(=O)NCCCCN=C(N)N [E-64] | re-appearance of polyQ peptides | – | – | – | – |
| O=S(=O)(F)Cc1ccccc1 [PMSF, phenylmethylsulfonyl] | re-appearance of polyQ peptides | – | – | – | – |
| CCCCNC(=O)[C@@H]1Cc2ccccc2N1C(=O)[C@@H](N)CC [butabindide, reference compound] | – | accumulation of polyQ peptides | – | – | – |
| DnaJB6: member of the Hsp40/DnaJ heat shock protein family, co-expressed chaperone | – | – | remarkably reduced | considerable decrease in aggregation | polyQ peptides in the SDS-soluble fraction (polyQ peptides (Q65); FIG. 8A and B): marked decrease |
| tripeptidyl peptidase II [TPPII] | – | reduced polyQ levels | – | – | aggregated and low-molecular weight Q65 peptide levels ([1]; co-expression with GFP-Ub-Q65, immunoblot 1C2, FIG. 7): decrease in both aggregated and low-molecular weight Q65 peptides |
| B1 | – | – | remarkably reduced | considerable decrease in aggregation | – |
